One test has as its system BdorOBP2. The following applies: ref 39; cited from earlier work.
Another test addresses T1, OR35a (Drosophila melanogaster, UniProt Q9V3Q2).
T1 sequence (Q9V3Q2 1-409): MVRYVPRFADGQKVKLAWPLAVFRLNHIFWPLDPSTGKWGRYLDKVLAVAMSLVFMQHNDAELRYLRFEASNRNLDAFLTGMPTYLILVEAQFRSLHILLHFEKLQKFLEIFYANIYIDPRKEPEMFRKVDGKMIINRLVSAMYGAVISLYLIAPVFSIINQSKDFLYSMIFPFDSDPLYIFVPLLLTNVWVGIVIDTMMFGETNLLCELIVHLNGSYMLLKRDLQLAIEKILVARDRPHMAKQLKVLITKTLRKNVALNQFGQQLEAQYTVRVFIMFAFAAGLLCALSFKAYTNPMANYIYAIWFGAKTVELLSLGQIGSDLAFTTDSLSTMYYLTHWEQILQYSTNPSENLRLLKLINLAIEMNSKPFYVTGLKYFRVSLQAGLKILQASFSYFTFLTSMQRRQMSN
The test is described as follows: EIS sensor, Or35a liposomes on gold electrode (Example 1). In kind it is binding. Particulars: lowest three concentrations. As to the method:
(§1) Liposomes were prepared using a phospholipid solution produced by evaporating solutions containing: phosphatidylethanolamine (PE), phosphatidylserine (PS), phosphatidylcholine (PC), and cholesterol (CH) at a molar ratio of 5:3:3:1 in a small glass tube under a stream of N2 gas, then desiccating under vacuum for 1 h. […] To promote the formation of liposomes, 10 freeze/thaw steps were performed by transferring the tube from liquid nitrogen to a 40° C. water bath. Liposomes were then sized by passing the lipid solution 11 times through a 100-nm polycarbonate membrane using an Avestin LiposoFAST extruder unit (Avestin, Germany). Glycerol was added at 10% of the final volume and aliquots at 10 mg/mL were snap frozen in liquid nitrogen and stored at -80° C. Prior to their use, liposomes were defrosted on ice and then destabilized by incubating with 0.2% CHAPS for 15 min at room temperature. Then 200 μg of purified odorant receptor^14 was added to 1 mg of liposomes and rotated at 10 rpm for 1 h at room temperature. […] The Bio-Beads were removed after each incubation period. The OR integrated liposomes were pelleted by centrifugation at 100,000 g for 1 h, and were resuspended in 500 μL of rehydration buffer. Integration of OrXs into liposomes was assessed by density gradient ultracentrifugation (DGU) using Accudenz (Accurate Chemical & Scientific Corporation, USA). […] The sample was then centrifuged at 100,000 g for 4 h at 4° C. Liposomes will float to the top of the gradient after Accudenz DGU due to their low density. 1.3 Electrode Cleaning Gold disk (2 mm) electrodes were cleaned with polishing with Alumina paste for 2 minutes, ultra-sonicated in pure ethanol and then Milli-Q water for 5 minutes each. […] Charge transfer resistance (Rct) of electrodes were calculated by fitting obtained data to a Randles' equivalent circuit [Rs+CPE/(Rct+W)] comprising of a solution resistance (Rs) in series with a constant phase element (CPE) and in parallel with charge transfer resistance (Rct) and Warburg diffusion element. […]

The next test has as its target T2, Or10a (Drosophila melanogaster, UniProt Q9VYZ1).
T2 sequence (Q9VYZ1 1-406): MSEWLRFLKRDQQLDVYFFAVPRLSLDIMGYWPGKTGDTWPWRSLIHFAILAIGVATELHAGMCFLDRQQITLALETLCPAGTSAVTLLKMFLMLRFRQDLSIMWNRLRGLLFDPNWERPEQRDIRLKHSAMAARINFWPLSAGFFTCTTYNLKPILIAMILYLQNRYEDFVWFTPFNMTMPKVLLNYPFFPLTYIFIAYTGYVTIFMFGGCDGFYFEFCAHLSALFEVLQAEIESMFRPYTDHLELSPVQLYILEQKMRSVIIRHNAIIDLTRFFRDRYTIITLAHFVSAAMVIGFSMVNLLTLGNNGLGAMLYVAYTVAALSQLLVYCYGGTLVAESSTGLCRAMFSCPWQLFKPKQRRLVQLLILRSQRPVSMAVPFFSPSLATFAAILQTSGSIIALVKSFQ
The test is described as follows: EIS sensor, Or10a liposomes on gold electrode (Example 1). Format: binding. Particulars: lowest three concentrations. The method, then: as §1

In the next test the target is T3, Or22a (Drosophila melanogaster, UniProt P81909).
T3 sequence (P81909 1-397): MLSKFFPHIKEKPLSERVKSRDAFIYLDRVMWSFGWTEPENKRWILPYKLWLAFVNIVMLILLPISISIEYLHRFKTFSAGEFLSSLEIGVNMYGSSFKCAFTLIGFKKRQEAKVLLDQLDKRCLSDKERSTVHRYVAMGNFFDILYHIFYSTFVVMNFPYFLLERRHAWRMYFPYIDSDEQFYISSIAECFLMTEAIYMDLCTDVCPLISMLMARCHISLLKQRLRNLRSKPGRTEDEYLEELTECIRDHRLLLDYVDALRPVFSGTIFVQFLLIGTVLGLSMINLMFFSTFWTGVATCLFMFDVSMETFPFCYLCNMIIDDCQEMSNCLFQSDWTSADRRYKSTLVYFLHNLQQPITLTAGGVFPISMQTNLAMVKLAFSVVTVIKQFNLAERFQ
The test is described as follows: EIS sensor, Or22a liposomes on gold electrode (Example 1). In kind it is binding. Particulars: lowest three concentrations. As to the method: as §1

As to `CC(=O)OCCC(C)C` [isoamyl acetate], in the test with BdorOBP2, the detection limit is listed as ~10^−6 M.

As for `C=CCc1ccc(OC)c(OC)c1` [4-allylveratrole], in the test with BdorOBP2, the detection limit is listed as ~10^−6 M.

With `O=CCc1ccccc1` [phenylacetaldehyde], the detection limit with BdorOBP2 is recorded as ~10^−6 M.

For `COC(=O)c1ccc(O)cc1` [methy-p-hydroxyl benzoate], the detection limit in the test on BdorOBP2 is ~10^−6 M.

Consider `CCCCOC(=O)c1ccccc1C(=O)OCCCC` [dibutyl phthalate], for which, in the test on BdorOBP2, the detection limit was ~10^−6 M.

`CC(=O)/C=C/C1=C(C)CCCC1(C)C` [β-ionone]: the detection limit in the test with BdorOBP2 is ~10^−6 M.

B1: Or35a: insect odorant receptor OrX in liposomes attached to the gold electrode of the EIS sensor (protein, UniProt Q9V3Q2 1-409, looked up)
Odorant receptor 35a: MVRYVPRFADGQKVKLAWPLAVFRLNHIFWPLDPSTGKWGRYLDKVLAVAMSLVFMQHNDAELRYLRFEASNRNLDAFLTGMPTYLILVEAQFRSLHILLHFEKLQKFLEIFYANIYIDPRKEPEMFRKVDGKMIINRLVSAMYGAVISLYLIAPVFSIINQSKDFLYSMIFPFDSDPLYIFVPLLLTNVWVGIVIDTMMFGETNLLCELIVHLNGSYMLLKRDLQLAIEKILVARDRPHMAKQLKVLITKTLRKNVALNQFGQQLEAQYTVRVFIMFAFAAGLLCALSFKAYTNPMANYIYAIWFGAKTVELLSLGQIGSDLAFTTDSLSTMYYLTHWEQILQYSTNPSENLRLLKLINLAIEMNSKPFYVTGLKYFRVSLQAGLKILQASFSYFTFLTSMQRRQMSN
modifications: in liposomes
notes: insect odorant receptor OrX in liposomes attached to the gold electrode of the EIS sensor
As for B1, the “Sensitivity of the sensor (slope of the linear range)” value in the test with OR35a is 0.116 units/[log(conc/M)].

B2: Or10a: insect odorant receptor OrX in liposomes attached to the gold electrode of the EIS sensor (protein, UniProt Q9VYZ1 1-406, looked up)
Odorant receptor 10a: MSEWLRFLKRDQQLDVYFFAVPRLSLDIMGYWPGKTGDTWPWRSLIHFAILAIGVATELHAGMCFLDRQQITLALETLCPAGTSAVTLLKMFLMLRFRQDLSIMWNRLRGLLFDPNWERPEQRDIRLKHSAMAARINFWPLSAGFFTCTTYNLKPILIAMILYLQNRYEDFVWFTPFNMTMPKVLLNYPFFPLTYIFIAYTGYVTIFMFGGCDGFYFEFCAHLSALFEVLQAEIESMFRPYTDHLELSPVQLYILEQKMRSVIIRHNAIIDLTRFFRDRYTIITLAHFVSAAMVIGFSMVNLLTLGNNGLGAMLYVAYTVAALSQLLVYCYGGTLVAESSTGLCRAMFSCPWQLFKPKQRRLVQLLILRSQRPVSMAVPFFSPSLATFAAILQTSGSIIALVKSFQ
modifications: in liposomes
notes: as for B1
On to B2, for which the “Sensitivity of the sensor (slope of the linear range)” value with Or10a is 0.313 units/[log(conc/M)].

B3: Or22a: insect odorant receptor OrX in liposomes attached to the gold electrode of the EIS sensor (protein, UniProt P81909 1-397, looked up)
Odorant receptor 22a: MLSKFFPHIKEKPLSERVKSRDAFIYLDRVMWSFGWTEPENKRWILPYKLWLAFVNIVMLILLPISISIEYLHRFKTFSAGEFLSSLEIGVNMYGSSFKCAFTLIGFKKRQEAKVLLDQLDKRCLSDKERSTVHRYVAMGNFFDILYHIFYSTFVVMNFPYFLLERRHAWRMYFPYIDSDEQFYISSIAECFLMTEAIYMDLCTDVCPLISMLMARCHISLLKQRLRNLRSKPGRTEDEYLEELTECIRDHRLLLDYVDALRPVFSGTIFVQFLLIGTVLGLSMINLMFFSTFWTGVATCLFMFDVSMETFPFCYLCNMIIDDCQEMSNCLFQSDWTSADRRYKSTLVYFLHNLQQPITLTAGGVFPISMQTNLAMVKLAFSVVTVIKQFNLAERFQ
modifications: in liposomes
notes: as for B1
For B3, the “Sensitivity of the sensor (slope of the linear range)” value with Or22a is 0.156 units/[log(conc/M)].

Source of the values: patent US12044651B2, “Sensor device and methods” (SCENTIAN BIO LIMITED, priority 2016, dated 2024).
